“And” between values parts separate entries of the source, which are not always exact repeats. Equal values may be shown once. Toxic doses and inconclusive results are not listed.
Test system: L1210 leukemia ip in BDF1 mice, survival T/C
Test: NCI In Vivo Anticancer Drug Screen. Data for tumor model L1210 Leukemia (intraperitoneal) in B6D2F1 (BDF1) mice
Conditions: endpoint: mean survival time, higher = longer survival
How it was run: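 Survival endpoint. Drug-treated group vs vehicle group, expressed as T divided by C. Tumor passaged by transplantation.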

[1] = dose: 100.0 mg/kg/injection, schedule: Q01DX001 (ip), vehicle: saline
[2] = dose: 200.0 mg/kg/injection, schedule: Q01DX001 (ip), vehicle: saline
[3] = dose: 400.0 mg/kg/injection, schedule: Q01DX001 (ip), vehicle: saline
[4] = dose: 100.0 mg/kg/injection, schedule: Q04DX002 (ip), vehicle: saline with Tween-80
[5] = dose: 200.0 mg/kg/injection, schedule: Q04DX002 (ip), vehicle: saline with Tween-80
[6] = dose: 400.0 mg/kg/injection, schedule: Q04DX002 (ip), vehicle: saline with Tween-80
[7] = dose: 100.0 mg/kg/injection, schedule: Q01DX009 (ip), vehicle: Klucel (hydroxypropylcellulose) (HPC)
[8] = dose: 100.0 mg/kg/injection, schedule: Q04DX003 (ip), vehicle: Klucel (hydroxypropylcellulose) (HPC)
[9] = dose: 200.0 mg/kg/injection, schedule: Q01DX009 (ip), vehicle: Klucel (hydroxypropylcellulose) (HPC)
[10] = dose: 200.0 mg/kg/injection, schedule: Q04DX003 (ip), vehicle: Klucel (hydroxypropylcellulose) (HPC)
[11] = dose: 400.0 mg/kg/injection, schedule: Q01DX009 (ip), vehicle: Klucel (hydroxypropylcellulose) (HPC)
[12] = dose: 400.0 mg/kg/injection, schedule: Q04DX003 (ip), vehicle: Klucel (hydroxypropylcellulose) (HPC)

Which results are given for `CCCCCC#CCCCCl`?
T/C (dose: 50.0 mg/kg/injection, schedule: Q01DX001 (ip), vehicle: carboxymethylcellulose (CMC)): 101 % of control; T/C (dose: 50.0 mg/kg/injection, schedule: Q01DX009 (ip), vehicle: carboxymethylcellulose (CMC)): 95 % of control and 97 % of control; T/C (dose: 50.0 mg/kg/injection, schedule: Q04DX003 (ip), vehicle: carboxymethylcellulose (CMC)): 98 % of control; T/C (dose: 100.0 mg/kg/injection, schedule: Q01DX001 (ip), vehicle: carboxymethylcellulose (CMC)): 96 % of control; T/C (dose: 100.0 mg/kg/injection, schedule: Q01DX009 (ip), vehicle: carboxymethylcellulose (CMC)): 93 % of control and 95 % of control; T/C (dose: 100.0 mg/kg/injection, schedule: Q04DX002 (ip), vehicle: carboxymethylcellulose (CMC)): 95 % of control and 97 % of control; T/C (dose: 100.0 mg/kg/injection, schedule: Q04DX003 (ip), vehicle: carboxymethylcellulose (CMC)): 102 % of control; T/C (dose: 200.0 mg/kg/injection, schedule: Q01DX001 (ip), vehicle: carboxymethylcellulose (CMC)): 91 % of control; T/C (dose: 200.0 mg/kg/injection, schedule: Q01DX009 (ip), vehicle: carboxymethylcellulose (CMC)): 95 % of control; T/C (dose: 200.0 mg/kg/injection, schedule: Q04DX002 (ip), vehicle: carboxymethylcellulose (CMC)): 100 % of control and 107 % of control; T/C (dose: 200.0 mg/kg/injection, schedule: Q04DX003 (ip), vehicle: carboxymethylcellulose (CMC)): 94 % of control

Which results are given for `CC(C)(CS(C)(=O)=O)NC(=O)NCCCl`?
T/C (dose: 100.0 mg/kg/injection, schedule: Q04DX002 (ip), vehicle: saline): 103 % of control; T/C (dose: 200.0 mg/kg/injection, schedule: Q04DX002 (ip), vehicle: saline): 92 % of control; T/C (dose: 400.0 mg/kg/injection, schedule: Q04DX002 (ip), vehicle: saline): 103 % of control

What does the source list for `O=C(O)COc1ccc(C(=O)O)cc1`?
T/C (dose: 100.0 mg/kg/injection, schedule: Q04DX002 (ip), vehicle: Klucel (hydroxypropylcellulose) (HPC)): 111 % of control; T/C (dose: 200.0 mg/kg/injection, schedule: Q04DX002 (ip), vehicle: Klucel (hydroxypropylcellulose) (HPC)): 97 % of control; T/C (dose: 400.0 mg/kg/injection, schedule: Q04DX002 (ip), vehicle: Klucel (hydroxypropylcellulose) (HPC)): 101 % of control

Which T/C (dose: 5.0 mg/kg/injection, schedule: Q01DX Z (ip), vehicle: carboxymethylcellulose (CMC)) does the source give for `Cn1cc(F)c(=O)[nH]c1=O` here?
The T/C was 96 % of control.

What about the T/C (dose: 10.0 mg/kg/injection, schedule: Q01DX Z (ip), vehicle: carboxymethylcellulose (CMC)) of the same molecule?
The T/C was 100 % of control.

What about the T/C (dose: 20.0 mg/kg/injection, schedule: Q01DX Z (ip), vehicle: carboxymethylcellulose (CMC)) of the same molecule?
Its T/C is 113 % of control.

And the T/C (dose: 40.0 mg/kg/injection, schedule: Q01DX Z (ip), vehicle: carboxymethylcellulose (CMC))?
The T/C was 96 % of control.

`N=C(CC(=O)Nc1ccccc1)c1ccccc1` was tested. Which T/C (dose: 50.0 mg/kg/injection, schedule: Q01DX001 (ip), vehicle: saline) did it give?
The T/C was 101 % of control.

And the T/C [1]?
The T/C was 96 % of control.

What about the T/C [2] of the same molecule?
The T/C was 102 % of control.

And the T/C [3]?
Its T/C is 101 % of control.

Which T/C (dose: 100.0 mg/kg/injection, schedule: Q04DX003 (ip), vehicle: other) does the source give for `CCCCC(C)(C)COC(=O)Nc1ccccc1` here?
The T/C was 92 % of control.

And the T/C (dose: 200.0 mg/kg/injection, schedule: Q04DX003 (ip), vehicle: other)?
Its T/C is 104 % of control.

What about the T/C (dose: 400.0 mg/kg/injection, schedule: Q04DX003 (ip), vehicle: other) of the same molecule?
Its T/C is 101 % of control.

`CN(Cc1ccc2nc(N)nc(N)c2c1)c1ccc(C(=O)NC(CCC(=O)O)C(=O)O)cc1` (stereo not given) was tested. Which T/C (dose: 0.12 mg/kg/injection, schedule: Q01DX009 (ip), vehicle: other) did it give?
The T/C was 123 % of control.

What about the T/C (dose: 0.5 mg/kg/injection, schedule: Q01DX009 (ip), vehicle: other) of the same molecule?
Its T/C is 192 % of control.

And the T/C (dose: 1.0 mg/kg/injection, schedule: Q01DX009 (ip), vehicle: other)?
Its T/C is 190 % of control.

What about the T/C (dose: 1.25 mg/kg/injection, schedule: Q01DX009 (ip), vehicle: saline) of the same molecule?
The T/C was 154 % of control.

And the T/C (dose: 2.1 mg/kg/injection, schedule: Q01DX009 (ip), vehicle: other)?
Its T/C is 101 % of control.

What about the T/C (dose: 2.5 mg/kg/injection, schedule: Q01DX009 (ip), vehicle: saline) of the same molecule?
The T/C was 113 % of control.

What about the T/C (dose: 5.0 mg/kg/injection, schedule: Q01DX001 (ip), vehicle: other) of the same molecule?
The T/C was 151 % of control.

And the T/C (dose: 5.0 mg/kg/injection, schedule: Q01DX009 (ip), vehicle: saline)?
Its T/C is 97 % of control.

What about the T/C (dose: 6.6 mg/kg/injection, schedule: Q01DX001 (ip), vehicle: other) of the same molecule?
Its T/C is 119 % of control.

And the T/C (dose: 6.6 mg/kg/injection, schedule: Q01DX001 (ip), vehicle: saline)?
Its T/C is 119 % of control.

What about the T/C (dose: 10.0 mg/kg/injection, schedule: Q01DX001 (ip), vehicle: other) of the same molecule?
Its T/C is 159 % of control.

What about the T/C (dose: 15.0 mg/kg/injection, schedule: Q01DX001 (ip), vehicle: other) of the same molecule?
The T/C was 154 % of control.

For `Cc1c(Cl)cccc1NC(=O)Oc1ccccc1Cc1ccccc1`, which T/C (dose: 50.0 mg/kg/injection, schedule: Q01DX009 (ip), vehicle: saline with Tween-80) is on record?
The T/C was 96 % of control and 102 % of control.

What about the T/C (dose: 100.0 mg/kg/injection, schedule: Q01DX001 (ip), vehicle: saline with Tween-80) of the same molecule?
The T/C was 95 % of control.

What about the T/C [4] of the same molecule?
The T/C was 96 % of control and 110 % of control.

And the T/C (dose: 100.0 mg/kg/injection, schedule: Q04DX003 (ip), vehicle: saline with Tween-80)?
The T/C was 100 % of control.

And the T/C (dose: 200.0 mg/kg/injection, schedule: Q01DX001 (ip), vehicle: saline with Tween-80)?
The T/C was 105 % of control.

And the T/C [5]?
The T/C was 93 % of control and 92 % of control.

What about the T/C (dose: 200.0 mg/kg/injection, schedule: Q04DX003 (ip), vehicle: saline with Tween-80) of the same molecule?
The T/C was 94 % of control.

And the T/C (dose: 400.0 mg/kg/injection, schedule: Q01DX001 (ip), vehicle: saline with Tween-80)?
The T/C was 86 % of control.

And the T/C (dose: 400.0 mg/kg/injection, schedule: Q01DX009 (ip), vehicle: saline with Tween-80)?
Its T/C is 97 % of control and 89 % of control.

And the T/C [6]?
The T/C was 89 % of control and 91 % of control.

What about the T/C (dose: 400.0 mg/kg/injection, schedule: Q04DX003 (ip), vehicle: saline with Tween-80) of the same molecule?
Its T/C is 86 % of control.

Which T/C [7] does the source give for `CC1(C)C2CC3C(=CCCC3C#N)C1C2` (stereo not given) here?
The T/C was 105 % of control.

And the T/C [8]?
The T/C was 97 % of control.

What about the T/C [9] of the same molecule?
The T/C was 97 % of control.

And the T/C [10]?
Its T/C is 95 % of control.

What about the T/C [11] of the same molecule?
The T/C was 103 % of control.

And the T/C [12]?
Its T/C is 92 % of control.

Which results are given for `COc1ccccc1NC(=O)c1ccccc1F`?
T/C [7]: 95 % of control; T/C [9]: 95 % of control; T/C [11]: 101 % of control

How did the T/C (dose: 2.0 mg/kg/injection, schedule: Q04DX002 (ip), vehicle: saline) turn out when `CSC(=S)NN` was run?
Its T/C is 113 % of control.

And the T/C (dose: 4.0 mg/kg/injection, schedule: Q04DX002 (ip), vehicle: saline)?
Its T/C is 110 % of control.

What about the T/C (dose: 8.0 mg/kg/injection, schedule: Q04DX002 (ip), vehicle: saline) of the same molecule?
The T/C was 94 % of control and 108 % of control.

For `CC(=O)N(C)N=O`, which T/C (dose: 10.0 mg/kg/injection, schedule: Q01DX001 (ip), vehicle: saline) is on record?
Its T/C is 115 % of control.

And the T/C (dose: 20.0 mg/kg/injection, schedule: Q01DX001 (ip), vehicle: saline)?
The T/C was 115 % of control.

And the T/C (dose: 30.0 mg/kg/injection, schedule: Q01DX001 (ip), vehicle: saline)?
The T/C was 115 % of control.

What about the T/C (dose: 40.0 mg/kg/injection, schedule: Q01DX001 (ip), vehicle: saline) of the same molecule?
The T/C was 114 % of control.

`CCOC(=O)c1oc2ccc(OC)c(C(C)=O)c2c1C` was tested. Which T/C [4] did it give?
Its T/C is 103 % of control.

What about the T/C [5] of the same molecule?
The T/C was 107 % of control.

And the T/C [6]?
The T/C was 94 % of control.

What does the source list for `COC1(OC)C2(Cl)C3C(=O)C4C5C(=O)C3C1(Cl)C5(Cl)C42Cl` (stereo not given)?
T/C [1]: 105 % of control; T/C [2]: 94 % of control; T/C [3]: 89 % of control

Which results are given for `Cc1ccc(S(=O)(=O)CN2CCC(=O)c3ccccc32)cc1`?
T/C (dose: 75.0 mg/kg/injection, schedule: Q01DX001 (ip), vehicle: saline): 104 % of control; T/C (dose: 150.0 mg/kg/injection, schedule: Q01DX001 (ip), vehicle: saline): 101 % of control; T/C (dose: 300.0 mg/kg/injection, schedule: Q01DX001 (ip), vehicle: saline): 93 % of control

With `c1ccc2c(B(c3cccc4ccccc34)c3cccc4ccccc34)cccc2c1` as the molecule, how does the T/C [8] read?
Its T/C is 94 % of control.

And the T/C [10]?
Its T/C is 97 % of control.

What about the T/C [12] of the same molecule?
The T/C was 102 % of control.

`O=C(COc1ccc(Cl)cc1)OCCCl` was tested. Which T/C (dose: 87.5 mg/kg/injection, schedule: Q01DX009 (ip), vehicle: other) did it give?
Its T/C is 104 % of control.

And the T/C [8]?
Its T/C is 95 % of control.

What about the T/C (dose: 175.0 mg/kg/injection, schedule: Q01DX009 (ip), vehicle: other) of the same molecule?
The T/C was 98 % of control.

And the T/C [10]?
The T/C was 97 % of control.

And the T/C (dose: 350.0 mg/kg/injection, schedule: Q01DX009 (ip), vehicle: other)?
The T/C was 104 % of control.

And the T/C [12]?
Its T/C is 91 % of control.

With `CN(CCC#N)c1ccc(/C=C(\C#N)c2ccc(Cl)cc2)cc1` as the molecule, how does the T/C [7] read?
The T/C was 102 % of control.

And the T/C [9]?
The T/C was 103 % of control.

What about the T/C [11] of the same molecule?
The T/C was 105 % of control.

Which T/C [1] does the source give for `Nc1ncnc2c1ncn2[C@H]1CC[C@@H](CO)C1` here?
Its T/C is 106 % of control.

And the T/C [2]?
Its T/C is 97 % of control.
